Measured values as given in US20230172924A1, “THERAPEUTIC AGENT FOR BREAST CANCER” (Eisai R&D Management Co., Ltd., priority 2020, published 2023).

What was measured:
[1] = test system: human-derived breast cancer cell line MCF-7-hCYP19A1; test: Cell number (CellTiter Glo 2.0 emission) of MCF-7-hCYP19A1 cells with Compound A and aromatase inhibitors; assay type: cell-based; conditions: Compound A 1,000 nmol/L, 7 days culture with androstenedione, FGF2, FGF10, n=3
[2] = test system: human breast cancer patient-derived tumor (OD-BRE-0438); test: Antitumor effect of compound A and fulvestrant on OD-BRE-0438 patient-derived tumor subcutaneously transplanted in NOD-SCID mice; assay type: in vivo; conditions: fulvestrant 250 mg/kg s.c. days 0 and 7, combination both; for Average tumor volume after starting drug administration, Day 0: Day 0, compound A 25 mg/kg oral once a day; for Average tumor volume after starting drug administration, Day 4: Day 4, compound A 25 mg/kg oral once a day; for Average tumor volume after starting drug administration, Day 7: Day 7, compound A 25 mg/kg oral once a day; for Average tumor volume after starting drug administration, Day 11: Day 11, compound A 25 mg/kg oral once a day; for Average tumor volume after starting drug administration, Day 14: Day 14, compound A 25 mg/kg oral once a day
[3] = test system: human-derived breast cancer cell line MCF-7-hCYP19A1; test: Antitumor effect of compound A and letrozole on subcutaneously transplanted MCF-7-hCYP19A1 tumor in ovariectomized BALB/c nude mice; assay type: in vivo; conditions: letrozole 0.01 mg/mouse, or both, oral once a day; for Average tumor volume after starting drug administration, Day 0: Day 0, compound A 25 mg/kg; for Average tumor volume after starting drug administration, Day 4: Day 4, compound A 25 mg/kg; for Average tumor volume after starting drug administration, Day 7: Day 7, compound A 25 mg/kg; for Average tumor volume after starting drug administration, Day 11: Day 11, compound A 25 mg/kg; for Average tumor volume after starting drug administration, Day 14: Day 14, compound A 25 mg/kg
[4] = Table 4, anastrozole 10,000 nmol/L or both
[5] = Table 5, anastrozole 2,000 nmol/L or both
[6] = Table 3, letrozole 2,000 nmol/L or both

Structure (SMILES)	Emission value (count per second) [1, 4]	Emission value (count per second) [1, 5]	Average tumor volume after starting drug administration, Day 0 [2] [mm^3]	Average tumor volume after starting drug administration, Day 4 [2] [mm^3]	Average tumor volume after starting drug administration, Day 7 [2] [mm^3]	Average tumor volume after starting drug administration, Day 11 [2] [mm^3]	Average tumor volume after starting drug administration, Day 14 [2] [mm^3]	Emission value (count per second) [1, 6]	Average tumor volume after starting drug administration, Day 0 [3] [mm^3]	Average tumor volume after starting drug administration, Day 4 [3] [mm^3]	Average tumor volume after starting drug administration, Day 7 [3] [mm^3]	Average tumor volume after starting drug administration, Day 11 [3] [mm^3]	Average tumor volume after starting drug administration, Day 14 [3] [mm^3]
CC(C)(C#N)c1cc(Cn2cncn2)cc(C(C)(C)C#N)c1 [Anastrozole, anastrozole]	1,443,072 count per second	1,357,941 count per second											
CNC(=O)n1ccc2cc(Oc3ccnc(NC(=O)c4ccc(C5CCN(CCO)CC5)cc4)c3)c(OCCOC)cc21 [Compound A, 5-((2-(4-(1-(2-Hydroxyethyl)piperidin-4-yl)benzamide)pyridin-4-yl)oxy)-6-(2-methoxyethoxy)-N-methyl-1H-indole-1-carboxamide]	1,157,051 count per second	1,157,051 count per second	148.6	192.6	211.2	216.5	264.3	1,242,509 count per second	130.7	155.5	182.4	224.4	267.5
C[C@]12CC[C@@H]3c4ccc(O)cc4C[C@@H](CCCCCCCCC[S+]([O-])CCCC(F)(F)C(F)(F)F)[C@H]3[C@@H]1CC[C@@H]2O (some centres unmarked) [Fulvestrant, fulvestrant]			148.7	172.2	208.2	207.4	237.6						
N#Cc1ccc(C(c2ccc(C#N)cc2)n2cncn2)cc1 [Letrozole, letrozole]								1,410,920 count per second	132.4	147.3	140.6	159.6	162.0
